Results as given in US20240139376A1, “RECONSTITUTION OF EXTRACELLULAR MATRIXES FOR MUSCULOSKELETAL JOINT TISSUE REPAIR USING BIOMIMETIC BIOLOGIC AND SYNTHETIC FACTORS” (Rhode Island Hospital, priority 2021, published 2024).

Tests used:
[1] = tested on: Human CPCs; test: RT-qPCR of chondrogenic and hypertrophy markers after KGN treatment, CPCs; type: cell-based
Procedure: (§1) 1 μM KGN enhances chondrogenesis of CPCs but not MSCs. The following materials and methods were used to generate the data described herein. Human CPCs and bone marrow derived mesenchymal stem cells (BM-MSCs) were cultured at 40,000 cells/well for 3 days or 22,000 cells/well for 10 days on 12-well plates. Cells were either untreated or treated with 500 nM, 1 μM, 10 μM, or 100 μM KGN (Sigma-Aldrich) at N=5 for each treatment group. At experimental endpoint following KGN treatment, RT-qPCR was used the measure expression of chondrogenic markers SRY-Box Transcription Factor 9 (SOX9), collagen 2 (COL2), collagen 1 (COL1) (FIG. 3A) as well as hypertrophy and catabolism markers, associated with development of osteoarthritis, collagen 10 (COL10), matrix metallopeptidase 13 (MMP13), Runt-related transcription factor 2 (RUNX2) (FIG. 3B).
(§2) Human CPCs and BM-MSCs were cultured at 40,000 cells/well for 3 days or 22,000 cells/well for 10 days on 12-well plates. Cells were either untreated or treated with 500 nM, 1 uM, 10 uM, or 100 uM KGN (Sigma-Aldrich) at N=5 for each treatment group. At experimental endpoint following KGN treatment, RT-qPCR was used the measure expression of chondrogenic markers SOX9, COL2, COL1 as well as hypertrophy and catabolism markers COL10, MMP13, RUNX2. CPCs and BM-MSCs were cultured again at 22,000 cell/swell for 10 days in 12-well plates and again treated with KGN. At 5 and 10 days of treatment, cell culture supernatant was collected, with cell media and KGN replenished at the 5-day timepoint (N=3). Supernatants were used to perform ELISA for measuring MMP13 protein. At day 10, cell culture plates were stained for Alcian Blue (N=4). The color was extracted and the absorbances were quantified via spectrophotometry, to assess acidic glycosaminoglycans (GAG) and hyaluronan (HA). In analysis, within and between group differences were assessed through 2-way ANOVA with Dunnett's multiple comparisons test. Significant differences are signified by p-values≤0.05.

[2] = tested on: bone marrow derived mesenchymal stem cells (BM-MSCs); test: RT-qPCR of chondrogenic and hypertrophy markers after KGN treatment, BM-MSCs; type: cell-based, Human
Procedure: as §1, §2

[3] = tested on: Human CPCs; test: ELISA for MMP13 protein in cell culture supernatant, CPCs; type: cell-based; conditions: all treatment groups
Procedure: (§3) CPCs and BM-MSCs were cultured again at 22,000 cell/swell for 10 days in 12-well plates and again treated with KGN. At 5 and 10 days of treatment, cell culture supernatant was collected, with cell media and KGN replenished at the 5-day timepoint (N=3). Supernatants were used to perform ELISA for measuring MMP13 protein. At day 10, cell culture plates were stained for Alcian Blue (N=4). The color was extracted and the absorbances were quantified via spectrophotometry, to assess acidic glycosaminoglycans (GAG) and hyaluronan (HA). In analysis, within and between group differences were assessed through 2-way ANOVA with Dunnett's multiple comparisons test. Significant differences are signified by p-values ≤0.05.
(§4) Human CPCs and BM-MSCs were cultured at 40,000 cells/well for 3 days or 22,000 cells/well for 10 days on 12-well plates. Cells were either untreated or treated with 500 nM, 1 uM, 10 uM, or 100 uM KGN (Sigma-Aldrich) at N=5 for each treatment group. […] The color was extracted and the absorbances were quantified via spectrophotometry, to assess acidic glycosaminoglycans (GAG) and hyaluronan (HA). In analysis, within and between group differences were assessed through 2-way ANOVA with Dunnett's multiple comparisons test. […]

[4] = tested on: BM-MSCs; test: ELISA for MMP13 protein in cell culture supernatant, BM-MSCs; type: cell-based, Human
Procedure: as §3, §2

[5] = tested on: Human CPCs; test: Alcian Blue staining (GAG and HA), CPCs; type: cell-based; conditions: 1 μM KGN, 10 days, p<0.05
Procedure: as §3, §4

[6] = tested on: BM-MSCs; test: Alcian Blue staining (GAG and HA), BM-MSCs; type: cell-based, Human; conditions: 10 days
Procedure: as §3, §4

Q: How did the “expression of MMP13” value ([1]; 1 μM KGN, 3 days) turn out when `O=C(O)c1ccccc1C(=O)Nc1ccc(-c2ccccc2)cc1` [KGN, kartogenin] was run?
A: increased

Q: What about the “expression of RUNX2” value ([1]; 1 μM KGN, 3 days) of the same compound?
A: increased

Q: And the “expression of RUNX2” value ([1]; 10 μM KGN, 3 days)?
A: increased

Q: What about the “expression of RUNX2” value ([1]; 100 μM KGN, 3 days) of the same compound?
A: increased

Q: And the “upregulation of COL2 mRNA” value ([1]; CPCs, 1 μM KGN, 3 days, p<0.0001)?
A: 2 fold

Q: What about the “upregulation of SOX9 mRNA” value ([1]; CPCs, 1 μM KGN, 3 days, p<0.05) of the same compound?
A: 2 fold

Q: And the “upregulation of COL2 mRNA” value ([1]; CPCs, 1 μM KGN, 10 days, p<0.05)?
A: maintained

Q: What about the “expression of COL10” value ([2]; 100 μM KGN, 10 days, p<0.05) of the same compound?
A: significantly reduced

Q: What about the “expression of MMP13” value ([2]; 100 μM KGN, 10 days, p<0.05) of the same compound?
A: significantly reduced

Q: And the “expression of COL1” value ([2]; KGN)?
A: did not increase

Q: What about the “expression of COL2” value ([2]; KGN) of the same compound?
A: did not increase

Q: What about the “expression of SOX9” value ([2]; KGN) of the same compound?
A: did not increase

Q: And the “MMP13 protein in supernatant” value ([3]; 0-5 days KGN treatment)?
A: undetectable

Q: And the “MMP13 protein in supernatant” value ([3]; 6-10 days KGN treatment)?
A: undetectable

Q: What about the “protein levels of MMP13” value ([4]; 10 μM KGN, 0-5 days, p<0.001) of the same compound?
A: significant decrease

Q: What about the “protein levels of MMP13” value ([4]; 10 μM KGN, 5-10 days, p<0.05) of the same compound?
A: significant decrease

Q: What about the “protein levels of MMP13” value ([4]; 100 μM KGN, 0-5 days, p<0.0001) of the same compound?
A: significant decrease

Q: And the “protein levels of MMP13” value ([4]; 100 μM KGN, 5-10 days, p<0.0001)?
A: significant decrease

Q: What about the “Alcian Blue staining intensity vs untreated” value [5] of the same compound?
A: increased intensity

Q: What about the “Alcian Blue staining intensity vs untreated” value ([6]; 10 μM KGN, p<0.05) of the same compound?
A: stained more intensely

Q: And the “Alcian Blue staining intensity vs untreated” value ([6]; 100 μM KGN, p<0.0001)?
A: stained more intensely
